Values after ≈ are worked out from the molar mass of the structure shown.

Test [1] relates to Str. pyogenes A-9604. Description: MIC, tube dilution, Streptococcus pyogenes A9604. The format is cell-based. The settings on record: overnight 37° C., Nutrient Broth; for MIC: Streptococcus pyogenes, A9604, Str. pyogenes A9604, read-out: Minimum Inhibitory Concentration (M.I.C.). From the text:
(§1) Representative compounds of the present invention were subjected to in vitro antibiotic screening against a variety of microorganisms.

The subject of test [2] is Ps. aeruginosa A-21213. The experiment in a line: MIC, tube dilution, Pseudomonas aeruginosa A21213. The settings on record: Pseudomonas aeruginosa A21213, overnight 37° C.; for MIC: read-out: Minimum Inhibitory Concentration (M.I.C.). The format is cell-based.
From the text: as §1

The subject of test [3] is Staph. aureus (Meth-Res) A-15097. The experiment in a line: MIC, tube dilution, Staphylococcus aureus A15097 (Meth-Res). Format: cell-based. The settings on record: overnight 37° C.; for MIC: Staphylococcus aureus, read-out: Minimum Inhibitory Concentration (M.I.C.), Staph. aureus A15097 (Meth-Res).
From the text: as §1

Test [4] concerns K. pneumoniae A-15130. Description: MIC, tube dilution, Klebsiella pneumoniae A15130. Format: cell-based. The settings on record: overnight 37° C.; for MIC: Klebsiella pneumoniae, A15130, K. pneumoniae A15130, read-out: Minimum Inhibitory Concentration (M.I.C.).
From the text: as §1

For test [5], the system named is E. coli A-15119. The experiment in a line: MIC, tube dilution, Escherichia coli A15119. Format: cell-based. Particulars: overnight 37° C.; for MIC: Escherichia coli, A15119, E. coli A15119, read-out: Minimum Inhibitory Concentration (M.I.C.).
From the text: as §1

The subject of test [6] is Pr. mirabilis A-9900. The experiment in a line: MIC, tube dilution, Proteus mirabilis A9900. The settings on record: overnight 37° C.; for MIC: Proteus mirabilis, A9900, Proteus mirabilis A9900, read-out: Minimum Inhibitory Concentration (M.I.C.). Format: cell-based.
From the text: as §1

Test [7] relates to E. coli A-20341-1. The experiment in a line: MIC, tube dilution, Escherichia coli A20341-1. Particulars: E. coli A20341-1, overnight 37° C.; for MIC: Escherichia coli, A203411, read-out: Minimum Inhibitory Concentration (M.I.C.). The format is cell-based.
From the text: as §1

Test [8] has as its system Proteus vulgaris A9555. Description: MIC, tube dilution, Proteus vulgaris (mirabilis) A9555. The format is cell-based. The settings on record: overnight 37° C.; for MIC: read-out: Minimum Inhibitory Concentration (M.I.C.).
From the text: as §1

For test [9], the system named is Pr. morganii A-15153. Description: MIC, tube dilution, Proteus morganii A15153. The format is cell-based. Particulars: overnight 37° C.; for MIC: Morganella morganii, A15153, Proteus morganii A15153, read-out: Minimum Inhibitory Concentration (M.I.C.).
From the text: as §1

The test system of test [10] is Str. pneumoniae A-9585. The experiment in a line: MIC, tube dilution, Streptococcus pneumoniae A9585. The settings on record: overnight 37° C., Nutrient Broth; for MIC: Streptococcus pneumoniae, A9585, Str. pneumoniae A9585, read-out: Minimum Inhibitory Concentration (M.I.C.). The format is cell-based.
From the text: as §1

Test [11] deals with Staph. aureus A-9537. Description: MIC, tube dilution, Staphylococcus aureus A9537. The settings on record: overnight 37° C., Nutrient Broth; for MIC: Staphylococcus aureus, A9537, Staph. aureus A9537, read-out: Minimum Inhibitory Concentration (M.I.C.). Format: cell-based.
From the text: as §1

Test [12] relates to Ps. aeruginosa A-9843A. The experiment in a line: MIC, tube dilution, Pseudomonas aeruginosa A9843A. The format is cell-based. Particulars: overnight 37° C.; for MIC: Pseudomonas aeruginosa, A9843A, read-out: Minimum Inhibitory Concentration (M.I.C.), Pseudomonas aeruginosa A9843A.
From the text: as §1

For test [13], the system named is Staph. aureus A-9537 and 50% serum. Description: MIC, tube dilution, Staph. aureus A9537 + 50% serum. Format: cell-based, Staphylococcus aureus. Particulars: overnight 37° C.; for MIC: Staphylococcus aureus, read-out: Minimum Inhibitory Concentration (M.I.C.).
From the text: as §1

Test [14] deals with Staph. aureus (Pen-Res) A-9606. The experiment in a line: MIC, tube dilution, Staphylococcus aureus A9606 (Pen-Res). The format is cell-based. The settings on record: overnight 37° C.; for MIC: Staphylococcus aureus, read-out: Minimum Inhibitory Concentration (M.I.C.), Staph. aureus A9606 (Pen-Res).
From the text: as §1

For test [15], the system named is Ent. cloacae A-9656. Description: MIC, tube dilution, Enterobacter cloacae A9656. The settings on record: Enterobacter cloacae A9656, overnight 37° C.; for MIC: read-out: Minimum Inhibitory Concentration (M.I.C.). Format: cell-based.
From the text: as §1

Test [16] deals with Klebsiella species A20468. Description: MIC, tube dilution, Klebsiella species A20468. The format is cell-based. The settings on record: Klebsiella species (K. pneumoniae) A20468, overnight 37° C.; for MIC: read-out: Minimum Inhibitory Concentration (M.I.C.).
From the text: as §1

The test system of test [17] is Str. faecalis A-20688. Description: MIC, tube dilution, Streptococcus faecalis A20688. The format is cell-based. Particulars: overnight 37° C.; for MIC: Enterococcus faecalis, A20688, Str. faecalis A20688, read-out: Minimum Inhibitory Concentration (M.I.C.).
From the text: as §1

Test [18] concerns Ent. cloacae A-9659. Description: MIC, tube dilution, Enterobacter cloacae A9659. Format: cell-based. Particulars: overnight 37° C.; for MIC: Enterobacter cloacae, A9659, Enterobacter cloacae A9659, read-out: Minimum Inhibitory Concentration (M.I.C.).
From the text: as §1

Test [19] deals with Ser. marcescens A-20019. The experiment in a line: MIC, tube dilution, Serratia marcescens A20019. Format: cell-based. The settings on record: overnight 37° C.; for MIC: Serratia marcescens, A20019, Serratia marcescens A20019, read-out: Minimum Inhibitory Concentration (M.I.C.).
From the text: as §1

The subject of test [20] is Proteus rettgeri A21203. The experiment in a line: MIC, tube dilution, Proteus rettgeri A21203. The format is cell-based. Particulars: Proteus rettgeri A21203, overnight 37° C.; for MIC: Providencia rettgeri, read-out: Minimum Inhibitory Concentration (M.I.C.).
From the text: as §1

As to `CSc1nnc(C2=C(C(=O)O)N3C(=O)CC3S2)o1` (stereo not drawn) [Example 56, Sodium 3-(5-Methylthio-1,3,4-oxadiazol-2-yl)penem-3-carboxylate], the MIC in [1] is 125 µg/mL; in test [2], 125 µg/mL; in test [3] it was above 125 µg/mL; in test [4] it was above 125 µg/mL; in test [5], above 125 µg/mL; in [6], above 125 µg/mL. Further, the MIC is above 125 µg/mL in [7]; above 125 µg/mL in [8]; above 125 µg/mL in test [9]; 125 µg/mL in test [10]; above 125 µg/mL in test [11]; 125 µg/mL in test [12]. For the same compound, the MIC in [13] was above 63 µg/mL; in test [14] it was above 125 µg/mL; in test [15] it was above 125 µg/mL; in test [16], above 125 µg/mL; in test [17] it was above 125 µg/mL; in test [18], above 125 µg/mL. Besides, the MIC in test [19] and in test [20] was above 125 µg/mL in each case.

Take `COP(=O)(CCC1=C(C(=O)O)N2C(=O)CC2S1)OC` (stereo not drawn) [Example 57]: the “Minimum Inhibitory Concentration (M.I.C.)” value was “.13 µg/mL” in test [1] (Str. pyogenes A9604); 125 µg/mL in test [2]; above 125 µg/mL in test [3] (Staph. aureus A15097 (Meth-Res)); 125 µg/mL in test [4] (K. pneumoniae A15130); 16 µg/mL in test [5] (E. coli A15119); 8 µg/mL in [6] (Proteus mirabilis A9900). For the same compound, the “Minimum Inhibitory Concentration (M.I.C.)” value was above 125 µg/mL in [7]; 63 µg/mL in [8]; 32 µg/mL in [9] (Proteus morganii A15153); “.06 µg/mL” in [10] (Str. pneumoniae A9585); 1 µg/mL in test [11] (Staph. aureus A9537); 125 µg/mL in test [12] (Pseudomonas aeruginosa A9843A). In addition, the “Minimum Inhibitory Concentration (M.I.C.)” value was 16 µg/mL in test [13]; 125 µg/mL in test [14] (Staph. aureus A9606 (Pen-Res)); 63 µg/mL in test [15]; above 125 µg/mL in test [16]; 125 µg/mL in [17] (Str. faecalis A20688); 125 µg/mL in [18] (Enterobacter cloacae A9659). Further, the figures for the “Minimum Inhibitory Concentration (M.I.C.)” value in [19] (Serratia marcescens A20019) and in test [20] were 63 µg/mL and 16 µg/mL, respectively.

Take `CC(C)OP(=O)(CCC1=C(C(=O)O)N2C(=O)CC2S1)OC(C)C` (stereo not drawn) [Preparation 54]: the MIC in test [1] is 125 µg/mL (≈ 344 µM); in test [2] it was 125 µg/mL (≈ 344 µM); in [3], 63 µg/mL (≈ 173 µM); in test [4], above 125 µg/mL; in [5] it was 63 µg/mL (≈ 173 µM); in test [6], 125 µg/mL (≈ 344 µM). Besides, the MIC in test [7] was 32 µg/mL (≈ 88.1 µM); in test [8] it was above 125 µg/mL; in test [9], 125 µg/mL (≈ 344 µM); in test [10], 63 µg/mL (≈ 173 µM); in test [11] it was 32 µg/mL (≈ 88.1 µM); in [12], 125 µg/mL (≈ 344 µM). Moreover, the MIC in [13] was 32 µg/mL; in [14], above 125 µg/mL; in [15], 32 µg/mL (≈ 88.1 µM); in [16], 63 µg/mL (≈ 173 µM); in test [17] it was 63 µg/mL (≈ 173 µM); in test [18], 125 µg/mL (≈ 344 µM). In addition, the MIC in test [19] and in [20] was 125 µg/mL (≈ 344 µM) in each case.
